Results reported in ChEMBL document CHEMBL5247626, “In vitro and in vivo biological evaluation of newly synthesized multi-target 20(R)-panaxadiol derivatives for treating Alzheimer's disease” (Eur J Med Chem, 2022).
The source made the active and inactive calls. No cut-off for these calls is given here.

What was measured:
PC-12 [1] = assay: Neuroprotective activity against amyloid beta (25 to 35)-induced rat PC12 cells assessed as reduction in amyloid beta (25 to 35)-induced apoptosis rate at 15 uM incubated for 15 mins by Annexin V-FITC/PI staining based flow cytometric analysis (reference value: 2.9%); assay type: functional; parameters: scale not given: the % may be the effect or the level left; conditions: 0.25 h
PC-12 [2] = assay: Neuroprotective activity against amyloid beta (25 to 35)-induced rat PC12 cells assessed as decrease in intracellular ROS level at 7.5 uM incubated for 24 hrs by DCFH-DA staining based flow cytometry assay; assay type: functional, cell-based
PC-12 [3] = assay: Neuroprotective activity against amyloid beta (25 to 35)-induced rat PC12 cells assessed as decrease in tau hyperphosphorylation at Thr181 at 15 uM preincubated for 30 mins followed by amyloid beta (25 to 35) addition and measured after 24 hrs by western blot assay; assay type: functional, cell-based; conditions: time 24.5 hrs
PC-12 [4] = assay: Neuroprotective activity against amyloid beta (25 to 35)-induced rat PC12 cells assessed as decrease in total tau protein expression level at 15 uM preincubated for 30 mins followed by amyloid beta (25 to 35) addition and measured after 24 hrs by western blot assay; assay type: functional, cell-based; conditions: time 24.5 hrs

CC1(C)CCC[C@](C)([C@H]2CC[C@]3(C)[C@@H]2[C@H](O)C[C@@H]2[C@@]4(C)CC[C@H](O)C(C)(C)[C@@H]4CC[C@]23C)O1 [PANAXADIOL]
Activity (PC-12 [1]): 5.4%
Activity (PC-12 [2]): Active
Activity (PC-12 [3]): Active
Activity (PC-12 [4]): Active
